Measurements reported in PubChem BioAssay AID1919006 (Molecular Pharmacology Branch, DTP, NCI, 2023).

Tested on: 885512-296-R-J2-PDC complex spheroid growth, % test/control
Test: Anticancer human tumor 885512-296-R-J2-PDC patient-derived breast carcinoma cell line growth inhibition [AhR]
Details: for IC50: curve of first compound; for viability, T/C: stronger effect = lower value
In short: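 Spheroids combined tumor cells with HUVEC endothelial cells and human MSCs as stroma. AhR antagonists were paired with standard or investigational drugs, each dosed in half-log steps down from near clinical Cmax, or from 10 microM where Cmax was unknown.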

[1] = second compound 0.1 µM, first compound 0.00949 µM
[2] = second compound 0.1 µM, first compound 0.03 µM
[3] = second compound 0.1 µM, first compound 0.0949 µM
[4] = second compound 0.1 µM, first compound 0.3 µM
[5] = second compound 0.1 µM, first compound 0.949 µM
[6] = second compound 0.1 µM, first compound 3 µM
[7] = second compound 0.316 µM, first compound 0.00949 µM
[8] = second compound 0.316 µM, first compound 0.03 µM
[9] = second compound 0.316 µM, first compound 0.0949 µM
[10] = second compound 0.316 µM, first compound 0.3 µM
[11] = second compound 0.316 µM, first compound 0.949 µM
[12] = second compound 0.316 µM, first compound 3 µM
[13] = second compound 1 µM, first compound 0.00949 µM
[14] = second compound 1 µM, first compound 0.03 µM
[15] = second compound 1 µM, first compound 0.0949 µM
[16] = second compound 1 µM, first compound 0.3 µM
[17] = second compound 1 µM, first compound 0.949 µM
[18] = second compound 1 µM, first compound 3 µM
[19] = second compound 3.16 µM, first compound 0.00949 µM
[20] = second compound 3.16 µM, first compound 0.03 µM
[21] = second compound 3.16 µM, first compound 0.0949 µM
[22] = second compound 3.16 µM, first compound 0.3 µM
[23] = second compound 3.16 µM, first compound 0.949 µM
[24] = second compound 3.16 µM, first compound 3 µM
[25] = second compound 10 µM, first compound 0.00949 µM
[26] = second compound 10 µM, first compound 0.03 µM
[27] = second compound 10 µM, first compound 0.0949 µM
[28] = second compound 10 µM, first compound 0.3 µM
[29] = second compound 10 µM, first compound 0.949 µM
[30] = second compound 10 µM, first compound 3 µM
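Note: spheroids exposed to compounds for seven days.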

In the case of CC1COCCN1c1cc(C2(S(C)(=N)=O)CC2)nc(-c2ccnc3[nH]ccc23)n1 (stereo not given) + Cc1ccccc1N=Nc1ccc(NC(=O)c2ccnn2C)c(C)c1, the IC50 (second compound 0.1 µM) is reported as 1870 nM, the IC50 (second compound 0.316 µM) is reported as 1700 nM and the IC50 (second compound 1 µM) is reported as 1790 nM. It also gave an IC50 (second compound 3.16 µM) of 1840 nM, an IC50 (second compound 10 µM) of 637 nM and a viability, T/C (second compound 0.1 µM, first compound 0.0316 µM) of 108%. For the same molecule, the viability, T/C (second compound 0.1 µM, first compound 0.1 µM) was 102%, the viability, T/C (second compound 0.1 µM, first compound 0.316 µM) was 96.3% and the viability, T/C (second compound 0.1 µM, first compound 1 µM) was 87%. The viability, T/C (second compound 0.1 µM, first compound 3.16 µM) was 19%, the viability, T/C (second compound 0.1 µM, first compound 10 µM) was 4.98% and the viability, T/C (second compound 0.316 µM, first compound 0.0316 µM) was 103%. The viability, T/C (second compound 0.316 µM, first compound 0.1 µM) was 127%, the viability, T/C (second compound 0.316 µM, first compound 0.316 µM) was 106% and the viability, T/C (second compound 0.316 µM, first compound 1 µM) was 77.9%. For the same molecule, the viability, T/C (second compound 0.316 µM, first compound 3.16 µM) was 17.9%, the viability, T/C (second compound 0.316 µM, first compound 10 µM) was 5.69% and the viability, T/C (second compound 1 µM, first compound 0.0316 µM) was 108%. For the same molecule, the viability, T/C (second compound 1 µM, first compound 0.1 µM) was 117%, the viability, T/C (second compound 1 µM, first compound 0.316 µM) was 95% and the viability, T/C (second compound 1 µM, first compound 1 µM) was 83.6%. The viability, T/C (second compound 1 µM, first compound 3.16 µM) was 17.4%, the viability, T/C (second compound 1 µM, first compound 10 µM) was 5.01% and the viability, T/C (second compound 3.16 µM, first compound 0.0316 µM) was 90%. For the same molecule, the viability, T/C (second compound 3.16 µM, first compound 0.1 µM) was 92%, the viability, T/C (second compound 3.16 µM, first compound 0.316 µM) was 97.6% and the viability, T/C (second compound 3.16 µM, first compound 1 µM) was 85.7%. The viability, T/C (second compound 3.16 µM, first compound 3.16 µM) was 17.9%, the viability, T/C (second compound 3.16 µM, first compound 10 µM) was 5.33% and the viability, T/C (second compound 10 µM, first compound 0.0316 µM) was 56.9%. For the same molecule, the viability, T/C (second compound 10 µM, first compound 0.1 µM) was 53.3%, the viability, T/C (second compound 10 µM, first compound 0.316 µM) was 49.6% and the viability, T/C (second compound 10 µM, first compound 1 µM) was 48.2%. It also gave a viability, T/C (second compound 10 µM, first compound 3.16 µM) of 13.4% and a viability, T/C (second compound 10 µM, first compound 10 µM) of 5.82%.
CCN(c1cc(-c2ccc(CN3CCOCC3)cc2)cc(C(=O)NCc2c(C)cc(C)[nH]c2=O)c1C)C1CCOCC1 + Cc1ccccc1N=Nc1ccc(NC(=O)c2ccnn2C)c(C)c1 showed an IC50 (second compound 0.1 µM) greater than 3000 nM, an IC50 (second compound 0.316 µM) greater than 3000 nM and an IC50 (second compound 1 µM) greater than 3000 nM. It also gave an IC50 (second compound 3.16 µM) greater than 3000 nM, an IC50 (second compound 10 µM) of 114 nM and a viability, T/C [1] of 116%. It also gave a viability, T/C [2] of 111%, a viability, T/C [3] of 104% and a viability, T/C [4] of 80.5%. For the same molecule, the viability, T/C [5] was 78.8%, the viability, T/C [6] was 79% and the viability, T/C [7] was 117%. For the same molecule, the viability, T/C [8] was 110%, the viability, T/C [9] was 94.5% and the viability, T/C [10] was 89.8%. The viability, T/C [11] was 80.8%, the viability, T/C [12] was 68.5% and the viability, T/C [13] was 106%. For the same molecule, the viability, T/C [14] was 108%, the viability, T/C [15] was 108% and the viability, T/C [16] was 87.2%. The viability, T/C [17] was 71%, the viability, T/C [18] was 65.7% and the viability, T/C [19] was 98.6%. For the same molecule, the viability, T/C [20] was 95.5%, the viability, T/C [21] was 78.8% and the viability, T/C [22] was 69.6%. It also gave a viability, T/C [23] of 57.8%, a viability, T/C [24] of 60.1% and a viability, T/C [25] of 49.1%. It also gave a viability, T/C [26] of 62.3%, a viability, T/C [27] of 47.9% and a viability, T/C [28] of 45.8%. The viability, T/C [29] was 43.3% and the viability, T/C [30] was 40.6%.
Nc1ncn(C2CC(O)C(CO)S2)c(=O)n1 (stereo not given) + Cc1ccccc1N=Nc1ccc(NC(=O)c2ccnn2C)c(C)c1 gave an IC50 (second compound 0.1 µM) of 206 nM, an IC50 (second compound 0.316 µM) of 182 nM and an IC50 (second compound 1 µM) of 189 nM. For the same molecule, the IC50 (second compound 3.16 µM) was 262 nM, the IC50 (second compound 10 µM) was 88.2 nM and the viability, T/C (second compound 0.1 µM, first compound 0.000949 µM) was 92.7%. For the same molecule, the viability, T/C (second compound 0.1 µM, first compound 0.003 µM) was 114%, the viability, T/C [1] was 106% and the viability, T/C [2] was 97.3%. It also gave a viability, T/C [3] of 70.5%, a viability, T/C [4] of 40.2% and a viability, T/C (second compound 0.316 µM, first compound 0.000949 µM) of 121%. For the same molecule, the viability, T/C (second compound 0.316 µM, first compound 0.003 µM) was 108%, the viability, T/C [7] was 134% and the viability, T/C [8] was 117%. For the same molecule, the viability, T/C [9] was 63%, the viability, T/C [10] was 40% and the viability, T/C (second compound 1 µM, first compound 0.000949 µM) was 106%. It also gave a viability, T/C (second compound 1 µM, first compound 0.003 µM) of 131%, a viability, T/C [13] of 135% and a viability, T/C [14] of 116%. The viability, T/C [15] was 62.3%, the viability, T/C [16] was 41.8% and the viability, T/C (second compound 3.16 µM, first compound 0.000949 µM) was 96.9%. For the same molecule, the viability, T/C (second compound 3.16 µM, first compound 0.003 µM) was 104%, the viability, T/C [19] was 106% and the viability, T/C [20] was 101%. It also gave a viability, T/C [21] of 69%, a viability, T/C [22] of 47.4% and a viability, T/C (second compound 10 µM, first compound 0.000949 µM) of 52.6%. For the same molecule, the viability, T/C (second compound 10 µM, first compound 0.003 µM) was 50.1%, the viability, T/C [25] was 57.8% and the viability, T/C [26] was 61.1%. The viability, T/C [27] was 46.2% and the viability, T/C [28] was 33.3%.
O=C(C=Cn1cnc(-c2cc(C(F)(F)F)cc(C(F)(F)F)c2)n1)NNc1cnccn1 + Cc1ccccc1N=Nc1ccc(NC(=O)c2ccnn2C)c(C)c1 showed an IC50 (second compound 0.1 µM) of 72.9 nM, an IC50 (second compound 0.316 µM) of 71 nM and an IC50 (second compound 1 µM) of 68.1 nM. It also gave an IC50 (second compound 3.16 µM) of 64.8 nM, an IC50 (second compound 10 µM) of 40.4 nM and a viability, T/C [1] of 111%. The viability, T/C [2] was 113%, the viability, T/C [3] was 31.6% and the viability, T/C [4] was 4.42%. For the same molecule, the viability, T/C [5] was 2.04%, the viability, T/C [6] was 0.74% and the viability, T/C [7] was 114%. For the same molecule, the viability, T/C [8] was 121%, the viability, T/C [9] was 27.2% and the viability, T/C [10] was 4.07%. The viability, T/C [11] was 1.17%, the viability, T/C [12] was 0.77% and the viability, T/C [13] was 118%. It also gave a viability, T/C [14] of 115%, a viability, T/C [15] of 23.7% and a viability, T/C [16] of 4.28%. For the same molecule, the viability, T/C [17] was 1.23%, the viability, T/C [18] was 1.12% and the viability, T/C [19] was 99.1%. For the same molecule, the viability, T/C [20] was 89.9%, the viability, T/C [21] was 30.1% and the viability, T/C [22] was 4.05%. It also gave a viability, T/C [23] of 1.22%, a viability, T/C [24] of 0.73% and a viability, T/C [25] of 54.6%. For the same molecule, the viability, T/C [26] was 64.4%, the viability, T/C [27] was 22.7% and the viability, T/C [28] was 3.99%. It also gave a viability, T/C [29] of 1.13% and a viability, T/C [30] of 0.63%.
